# Assay results published in patent publication US20170318812A1, “Plant and Crop Growth Regulating/Biostimulant Formulations and Methods of Use” (Arysta Lifescience North America, LLC, priority 2014, published 2017).
# Several values for one entry are separate records, joined by “and”; a condition that tells them apart may be missing. Identical values can stand only once.
# Experiments:
# [1] = test system: SORVU Sorghum bicolor (Grain sorghum); experiment: Ipfencarbazone biostimulant effect, early post emergence foliar application, greenhouse pots, plant height: sorghum; assay type: in vivo; conditions: for Plant HEIGHT, Mean / Plant HEIGHT, single plots: Grain sorghum DKB 590, 15 DA-A; for HEIGHT, percent of untreated check (APoC) / HEIGHT, treatment mean / HEIGHT, single plots (replicates): SORVU DKB 590
# Text: (§1) The original objective of this Example was to evaluate the herbicidal effect of ipfencarbazone when applied as a post emergent treatment to a range of selected crops and weeds. Unexpectedly, crop plant growth stimulation was observed. The actual species of weeds and crops are listed in the summary data tabulated below and in FIGS. 1-13. By convention each plant species has a Bayer code (5-letter name) with the scientific name for the plant referenced in FIGS. 1-13. In each Figure, each tray contains the same configuration of weeds and/or crops. In each Figure there is one replication of each treatment (six treatments in total). The top three photographs in each Figure show the Bayer Codes and bottom three photographs are aligned with the top three facilitating viewing of the same plant species. Throughout the Examples various abbreviations as conventional shorthand notation and will be appreciated by those skilled in the art. Some exemplary abbreviations include, “CV”=Co-efficient of Variation,” “LSD”=Least Significant Difference” (G/L (gram per L) AND GA/L (gram of active ingredient per L); “SC”=suspension concentrate formulation. The diluent in all treatments was water. By convention factors that are identical in all treatments (e.g. diluent and surfactant) are not listed in each treatment.
# (§2) Methods: The indicated size pots (see Tables below) are filled with a specific soil, the soil properties being indicated below. The referenced crops and weeds are planted by hand in each pot. […] The experiments include six treatments each replicated three times on each crop/weed species. At a specific time after emergence each crop and weed species was treated with ipfencarbazone plus a non-ionic surfactant (NIS). In the present Example, the surfactant employed was ENERGIC™ (non-ionic surfactant). The application timing is indicated in each of the Tables (1 or 2 leaf stage) below. Ipfencarbazone plus surfactant was diluted in water and applied at a rate equivalent to about 250 L/ha. Ipfencarbazone was applied using a track sprayer. After treatment, the pots were randomized in a greenhouse. At each assessment (indicated by “days after treatment” or DAT) the height of each plant was measured. The letters next to each mean indicate the level of statistical significance.
# (§3) Replications: 3, Untreated treatments: 1, Design: Randomized Complete Block (RCB), Treatment units: Treated ‘Plot’ experimental unit size, Dry Form. Unit: %, Treated ‘Plot’ experimental unit size Width: 1 meter, Treated ‘Plot’ experimental unit size Length: 1.4 meters, Application volume: 250 L/ha, Mix size: 0.15 liters, […]
# [2] = test system: GOSHI Gossypium hirsutum (American upland cotton); experiment: Ipfencarbazone biostimulant effect, early post emergence foliar application, greenhouse pots, plant height: cotton; assay type: in vivo; conditions: for Plant HEIGHT, Mean / Plant HEIGHT, single plots: Cotton 975WS; for HEIGHT, percent of untreated check (APoC) / HEIGHT, treatment mean: GOSHI 975WS
# Text: as §1, §2, §3
# [3] = 62.5 g ai/ha + Energic NIS 0.2 % v/v
# [4] = 125 g ai/ha + Energic NIS 0.2 % v/v
# [5] = 250 g ai/ha + Energic NIS 0.2 % v/v
# [6] = 500 g ai/ha + Energic NIS 0.2 % v/v
# [7] = 15 DA-A, 62.5 g ai/ha + Energic NIS 0.2 % v/v
# [8] = 15 DA-A, 125 g ai/ha + Energic NIS 0.2 % v/v
# [9] = 15 DA-A, 250 g ai/ha + Energic NIS 0.2 % v/v
# [10] = 15 DA-A, 500 g ai/ha + Energic NIS 0.2 % v/v
# [11] = 28 DA-A, 62.5 g ai/ha + Energic NIS 0.2 % v/v
# [12] = 28 DA-A, 125 g ai/ha + Energic NIS 0.2 % v/v
structure (smiles),measurement,setting,value
"CC(C)N(C(=O)n1cnn(-c2ccc(Cl)cc2Cl)c1=O)c1ccc(F)cc1F [ARY-0572-001, ipfencarbazone]","Plant HEIGHT, Mean",[1]; [3],59.9 cm
same,"Plant HEIGHT, single plots",[1]; [3],55.3 cm and 68.0 cm and 56.3 cm
same,"Plant HEIGHT, Mean",[1]; [4],59.3 cm
same,"Plant HEIGHT, single plots",[1]; [4],68.7 cm and 55.0 cm and 54.3 cm
same,"Plant HEIGHT, Mean",[1]; [5],61.3 cm
same,"Plant HEIGHT, single plots",[1]; [5],58.0 cm and 65.0 cm and 61.0 cm
same,"Plant HEIGHT, Mean",[1]; [6],60.4 cm
same,"Plant HEIGHT, single plots",[1]; [6],56.0 cm and 66.3 cm and 58.8 cm
same,"Plant HEIGHT, Mean",[1]; 1000 g ai/ha + Energic NIS 0.2 % v/v,22.7 cm
same,"HEIGHT, percent of untreated check (APoC)","[1]; 62.5 g ai/ha, 15 DA-A",(246.1%)
same,"HEIGHT, treatment mean","[1]; 62.5 g ai/ha, 15 DA-A",59.9 a cm
same,"HEIGHT, percent of untreated check (APoC)","[1]; 62.5 g ai/ha, 28 DA-A",(296.5%)
same,"HEIGHT, treatment mean","[1]; 62.5 g ai/ha, 28 DA-A",85.0 a cm and 85.0 cm
same,"HEIGHT, single plots (replicates)","[1]; 62.5 g ai/ha, 28 DA-A, plots 102, 205, 302",73.0 cm and 110.7 cm and 71.3 cm
same,"HEIGHT, percent of untreated check (APoC)","[1]; 125 g ai/ha, 15 DA-A",(243.8%)
same,"HEIGHT, treatment mean","[1]; 125 g ai/ha, 15 DA-A",59.3 a cm
same,"HEIGHT, percent of untreated check (APoC)","[1]; 125 g ai/ha, 28 DA-A",(277.1%)
same,"HEIGHT, treatment mean","[1]; 125 g ai/ha, 28 DA-A",79.4 a cm and 79.4 cm
same,"HEIGHT, single plots (replicates)","[1]; 125 g ai/ha, 28 DA-A, plots 103, 206, 305",102.7 cm and 71.3 cm and 64.3 cm
same,"HEIGHT, percent of untreated check (APoC)","[1]; 250 g ai/ha, 15 DA-A",(252.1%)
same,"HEIGHT, treatment mean","[1]; 250 g ai/ha, 15 DA-A",61.3 a cm
same,"HEIGHT, percent of untreated check (APoC)","[1]; 250 g ai/ha, 28 DA-A",(355.0%)
same,"HEIGHT, treatment mean","[1]; 250 g ai/ha, 28 DA-A",101.8 a cm and 101.8 cm
same,"HEIGHT, single plots (replicates)","[1]; 250 g ai/ha, 28 DA-A, plots 104, 201, 306",101.3 cm and 104.0 cm and 100.0 cm
same,"HEIGHT, percent of untreated check (APoC)","[1]; 500 g ai/ha, 15 DA-A",(248.2%)
same,"HEIGHT, treatment mean","[1]; 500 g ai/ha, 15 DA-A",60.4 a cm
same,"HEIGHT, percent of untreated check (APoC)","[1]; 500 g ai/ha, 28 DA-A",(266.7%)
same,"HEIGHT, treatment mean","[1]; 500 g ai/ha, 28 DA-A",76.4 a cm and 76.4 cm
same,"HEIGHT, single plots (replicates)","[1]; 500 g ai/ha, 28 DA-A, plots 105, 202, 301",44.7 cm and 89.7 cm and 95.0 cm
same,"HEIGHT, percent of untreated check (APoC)","[1]; 1000 g ai/ha, 15 DA-A",(93.2%)
same,"HEIGHT, treatment mean","[1]; 1000 g ai/ha, 15 DA-A",22.7 b cm
same,"HEIGHT, percent of untreated check (APoC)","[1]; 1000 g ai/ha, 28 DA-A",(123.6%)
same,"HEIGHT, treatment mean","[1]; 1000 g ai/ha, 28 DA-A",35.4 b cm and 35.4 cm
same,"HEIGHT, single plots (replicates)","[1]; 1000 g ai/ha, 28 DA-A, plots 106, 203, 304",75.3 cm and 9.3 cm and 21.7 cm
same,"Plant HEIGHT, Mean",[2]; [7],16.1 cm
same,"Plant HEIGHT, single plots",[2]; [7],19.2 cm and 13.7 cm and 15.3 cm
same,"Plant HEIGHT, Mean",[2]; [8],11.9 cm
same,"Plant HEIGHT, single plots",[2]; [8],9.7 cm and 12.0 cm and 14.0 cm
same,"Plant HEIGHT, Mean",[2]; [9],9.5 cm
same,"Plant HEIGHT, single plots",[2]; [9],9.3 cm and 9.2 cm and 10.0 cm
same,"Plant HEIGHT, Mean",[2]; [10],7.7 cm
same,"Plant HEIGHT, single plots",[2]; [10],9.2 cm and 6.3 cm and 7.7 cm
same,"Plant HEIGHT, Mean","[2]; 15 DA-A, 1000 g ai/ha + Energic NIS 0.2 % v/v",6.9 cm
same,"Plant HEIGHT, Mean",[2]; [11],24.9 cm
same,"Plant HEIGHT, single plots",[2]; [11],26.0 cm and 27.7 cm and 21.0 cm
same,"Plant HEIGHT, Mean",[2]; [12],17.7 cm
same,"Plant HEIGHT, single plots",[2]; [12],19.0 cm and 17.3 cm and 16.7 cm
same,"Plant HEIGHT, Mean","[2]; 28 DA-A, 250 g ai/ha + Energic NIS 0.2 % v/v",15.8 cm
same,"Plant HEIGHT, Mean","[2]; 28 DA-A, 500 g ai/ha + Energic NIS 0.2 % v/v",13.2 cm
same,"Plant HEIGHT, Mean","[2]; 28 DA-A, 1000 g ai/ha + Energic NIS 0.2 % v/v",8.9 cm
same,"HEIGHT, percent of untreated check (APoC)","[2]; 62.5 g ai/ha, 15 DA-A",(137.6%)
same,"HEIGHT, treatment mean","[2]; 62.5 g ai/ha, 15 DA-A",16.1 a cm
same,"HEIGHT, percent of untreated check (APoC)","[2]; 62.5 g ai/ha, 28 DA-A",(154.5%)
same,"HEIGHT, treatment mean","[2]; 62.5 g ai/ha, 28 DA-A",24.9 a cm
same,"HEIGHT, percent of untreated check (APoC)","[2]; 125 g ai/ha, 15 DA-A",(101.9%)
same,"HEIGHT, treatment mean","[2]; 125 g ai/ha, 15 DA-A",11.9 b cm
same,"HEIGHT, percent of untreated check (APoC)","[2]; 125 g ai/ha, 28 DA-A",(109.7%)
same,"HEIGHT, treatment mean","[2]; 125 g ai/ha, 28 DA-A",17.7 ab cm
same,"HEIGHT, percent of untreated check (APoC)","[2]; 250 g ai/ha, 15 DA-A",(81.4%)
same,"HEIGHT, treatment mean","[2]; 250 g ai/ha, 15 DA-A",9.5 bc cm
same,"HEIGHT, percent of untreated check (APoC)","[2]; 250 g ai/ha, 28 DA-A",(97.9%)
same,"HEIGHT, treatment mean","[2]; 250 g ai/ha, 28 DA-A",15.8 bc cm
same,"HEIGHT, percent of untreated check (APoC)","[2]; 500 g ai/ha, 15 DA-A",(66.2%)
same,"HEIGHT, treatment mean","[2]; 500 g ai/ha, 15 DA-A",7.7 c cm
same,"HEIGHT, percent of untreated check (APoC)","[2]; 500 g ai/ha, 28 DA-A",(82.1%)
same,"HEIGHT, treatment mean","[2]; 500 g ai/ha, 28 DA-A",13.2 bc cm
same,"HEIGHT, percent of untreated check (APoC)","[2]; 1000 g ai/ha, 15 DA-A",(59.5%)
same,"HEIGHT, treatment mean","[2]; 1000 g ai/ha, 15 DA-A",6.9 c cm
same,"HEIGHT, percent of untreated check (APoC)","[2]; 1000 g ai/ha, 28 DA-A",(55.2%)
same,"HEIGHT, treatment mean","[2]; 1000 g ai/ha, 28 DA-A",8.9 c cm
